According to patent US6168776A (priority 1997, dated 2001):
“Also recorded” adds a separate entry of the source. Each block holds one compound with its values, some of them ahead of it.

How the values were obtained:
[1] = Staining of AD brain sections (fluorescence microscopy); design: species or system human; details: in words
Experimental: 26: 241-242 (1973) with 1 mM 1,4-bis(3-carboxy-4-hydroxyphenylethenyl)-benzene substituted for Congo red, but the procedure was otherwise identical. Stained slides were examined using fluorescence microscopy.
(§1) The staining method was that of Stokes and Trickey, J. Clin. Pathol. 26: 241-242 (1973) with 1,4-bis(3-carboxy-4-hydroxyphenylethenyl)-benzene substituted for Congo red.

[2] = Staining of transgenic mouse brain section; details: in words
From the text: FIG. 11. […] 26: 241-242 (1973). […] The photomicrograph was obtained using fluorescence microscopy.
as §1

[3] = target: T1, Aβ(10-43) (Homo sapiens, UniProt P05067); assay: Inhibition of [14C] Chrysamine G binding to Aβ(10-43); details: for binding activity to Aβ / Ki relative to Chrysamine G / potency/affinity relative to reference compound: in words; for potency/affinity relative to reference compound: vs Chrysamine G or, for Chrysamine G, vs Congo red; for energy of binding: ΔG=-RT ln Keq, from KD (Chrysamine G) or Ki (aniline derivative)
T1 sequence (P05067 681-714): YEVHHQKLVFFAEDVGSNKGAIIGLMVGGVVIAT

[4] = Total [14C] Chrysamine G binding to AD brain homogenates; design: species or system human
[5] = Total [14C] Chrysamine G binding to control brain homogenates; design: species or system human
[6] = [14C] Chrysamine G binding to Down's syndrome brain homogenates; design: species or system human; details: two patients, FIG. 9C
From the text: FIGS. 9A, 9B and 9C. […] The data points represent the ratio of [^14 C] […] Horizontal bars represent the mean and error bars represent the standard error for control (circles), and AD brain (diamonds in 9A and 9B). […] Asterisks indicate significant differences compared to control (*p<0.05; **p<0.001). The diamonds in 9C represent a brain from a Down's syndrome patient not yet symptomatic with AD. The triangles in 9C represent a Down's syndrome patient who had developed AD as do the vast majority of Down's syndrome patients by their 40's.

[7] = target: T1, Aβ(10-43); assay: Scatchard analysis of [14C] Chrysamine G binding to synthetic Aβ(10-43); details: read-out: dissociation constant; approximately; whether by Scatchard analysis, kinetic methods, or inhibition of binding
[8] = Tissue levels after i.v. injection of [14C] Chrysamine G in mice (blood-brain barrier); format: in vivo, Swiss-Webster mice; details: 15 to 35 min after i.v. injection
[9] = Scatchard analysis of [14C]CG binding to AD brain homogenates
[10] = Metabolism of [14C] Chrysamine G in mouse brain and liver
[11] = Correlation of [14C]CG binding with neuritic plaque (NP) and neurofibrillary tangle (NFT) counts; design: species or system human
Experimental: FIG. 8B is a graph illustrating the correlation between the amount of [^14 C] […] The filled symbols and heavy lines indicate brains without amyloid angiopathy, the open symbols and dashed lines indicate brains with amyloid angiopathy. The y-axis represents total, absolute [^14 C] […] Approximately 75 μg protein and 150 nM [^14 C] Chrysamine G were used.

[12] = Scatchard analysis of [14C]CG binding to control brain homogenates
[13] = system: PC-12 cells; assay: Protection from Aβ(25-35)-induced toxicity in PC-12 cells (MTT reduction); details: for protective effects in cells incubated with 1 μM Aβ(25-35): Chrysamine G at 0.1 and 1 μM, FIG. 14; for protective effect against Aβ(25-35)-induced decrease in MTT reduction: in words, FIGS. 12 and 13
[14] = in words; Tubis et al.; cited from earlier work
[15] = system: Aβ; details: in words; cited from earlier work
[16] = guinea pigs; Tubis et al.; cited from earlier work
[17] = system: amylin; details: in words; cited from earlier work
[18] = system: Aβ; details: cited from earlier work
[19] = Octanol/water partitioning; details: 1-octanol / phosphate buffered saline pH 7.4

SMILES: O=C(O)c1cc(C=Cc2ccc(C=Cc3ccc(O)c(C(=O)O)c3)cc2)ccc1O [1,4-bis(3-carboxy-4-hydroxyphenylethenyl)-benzene]
staining relative to Chrysamine G, Congo red, or Thioflavin S ([1]; human AD brain): much more intense than that observed with Chrysamine G, Congo red, or Thioflavin S | staining of human AD brain [1]: Numerous amyloid plaques and neuropil threads can be readily identified as well as a neurofibrillary tangle; also recorded: Visible are a large number of neuritic plaques, a neurofibrillary tangle and frequent neuropil threads | staining of plaque in transgenic mouse brain [2]: intensely stained plaque

SMILES: O=C(O)c1cc(N=Nc2ccc(-c3ccc(N=Nc4ccc(O)c(C(=O)O)c4)c(Cl)c3)cc2Cl)ccc1O [3,3'-Cl2 CG]
Ki relative to Chrysamine G [3]: about half that of Chrysamine G

SMILES: Nc1c(/N=N/c2ccc(-c3ccc(/N=N/c4cc(S(=O)(=O)O)c5ccccc5c4N)cc3)cc2)cc(S(=O)(=O)O)c2ccccc12 [Congo red]
crossing of the blood-brain barrier [14]: does not cross the blood-brain barrier well | effect on aggregation of Aβ [15]: does inhibit aggregation of Aβ | brain/kidney ratio [16]: approximately 0.07 | effect on amylin toxicity to pancreatic islet cells [17]: inhibit pancreatic islet cell toxicity of diabetes-associated amylin; also recorded: protect pancreatic islet cells from the toxicity caused by amylin | effect on Aβ-induced neurotoxicity and cell degeneration ([18]; in vitro, in words): inhibits fibrillar Aβ neurotoxicity; also recorded: inhibits Aβ-induced neurotoxicity and cell degeneration in vitro | concentration for complete protection from Aβ-induced toxicity ([18]; literature): ≤ 20 µM | concentration over which Aβ-induced toxicity is protected against ([18]; literature): over 2 μM | octanol/water partition coefficient [19]: 0.665±0.037

SMILES: O=C(O)c1cc(N=Nc2ccccc2)ccc1O [aniline derivative]
binding activity to Aβ [3]: decrease in affinity | energy of binding [3]: 5.5 kcal/mol

SMILES: Oc1ccc(N=Nc2ccc(-c3ccc(N=Nc4ccc(O)cc4)cc3)cc2)cc1 [phenol derivative]
binding activity to Aβ [3]: completely destroyed binding affinity; also recorded: does not bind to synthetic Aβ | protective effects in cells incubated with 1 μM Aβ(25-35) [13]: no protective effects, and perhaps enhanced the toxicity of Aβ | protective effect against Aβ(25-35)-induced decrease in MTT reduction [13]: does not prevent Aβ-induced cytotoxicity

SMILES: O=C(O)c1ccccc1O [salicylic acid]
binding activity to Aβ [3]: total lack of binding activity; also recorded: inactivity

Continued, in another order:

binding activity to Aβ [3]: inactivity
SMILES: O=C(O)c1cc(N=Nc2ccc(-c3ccc(N=Nc4ccc(O)c(C(=O)O)c4)cc3S(=O)(=O)O)c(S(=O)(=O)O)c2)ccc1O [2,2'-(SO3)2 CG]

loss of activity from Chrysamine G (fold) ([3]; vs Chrysamine G): 7 fold
SMILES: O=C(O)c1cc(N=Nc2ccc(-c3ccc(N=Nc4ccc(O)c(C(=O)O)c4)c(C(=O)O)c3)cc2C(=O)O)ccc1O [3,3'-(COOH)2 CG]

Ki relative to Chrysamine G [3]: about half that of Chrysamine G
SMILES: O=C(O)c1cc(N=Nc2ccc(-c3ccc(N=Nc4ccc(O)c(C(=O)O)c4)c(Br)c3)cc2Br)ccc1O [3,3'-Br2 CG]

Ki relative to Chrysamine G [3]: about half that of Chrysamine G
SMILES: O=C(O)c1cc(N=Nc2ccc(-c3ccc(N=Nc4ccc(O)c(C(=O)O)c4)c(I)c3)cc2I)ccc1O [3,3'-I2 CG]

potency/affinity relative to reference compound [3]: slightly more potent than Chrysamine G
SMILES: O=C(O)c1cc(N=Nc2ccc(-c3ccc(N=Nc4ccc(O)c(C(=O)O)c4)c(I)c3)cc2)ccc1O [3-ICG]

potency/affinity relative to reference compound [3]: one-third as potent
SMILES: O=C(O)c1cc(F)cc(N=Nc2ccc(-c3ccc(N=Nc4cc(F)cc(C(=O)O)c4O)cc3)cc2)c1O [(5-FSA)CG]

potency/affinity relative to reference compound [3]: highest affinity compound in this series
SMILES: O=C(O)c1c(O)ccc(N=Nc2ccc(-c3ccc(N=Nc4ccc(O)c(C(=O)O)c4O)cc3)cc2)c1O [(6-OHSA)CG]

saturable (specific) binding, share of total binding ([4]; AD brain homogenates): 60-80% | total binding ([4]; Cerebellum, AD (n = 11)): 73 ± 9 fmol/μg protein | total binding ([4]; Frontal Pole, AD (n = 10), p < 0.006): 124 ± 16 fmol/μg protein | total binding ([4]; Head of Caudate, AD (n = 7), p = 0.14): 123 ± 22 fmol/μg protein | total binding ([4]; Inferior Parietal, AD (n = 11), p < 0.03): 137 ± 19 fmol/μg protein | total binding ([4]; Occipital, AD (n = 11), p = 0.1): 95 ± 12 fmol/μg protein | total binding ([4]; Superior Temporal, AD (n = 11), p < 0.02): 121 ± 14 fmol/μg protein | total binding ([4]; Superior/Middle Frontal, AD (n = 11), p < 0.005): 130 ± 21 fmol/μg protein | saturable and total binding vs control ([4]; in words): greater in AD brain than in control | energy of binding [3]: roughly 38 KJ/mole | total binding ([5]; Cerebellum, Control (n = 8)): 75 ± 13 fmol/μg protein | total binding ([5]; Frontal Pole, Control (n = 6)): 58 ± 8 fmol/μg protein | total binding ([5]; Head of Caudate, Control (n = 4)): 73 ± 11 fmol/μg protein | total binding ([5]; Inferior Parietal, Control (n = 8)): 76 ± 13 fmol/μg protein | total binding ([5]; Occipital, Control (n = 8)): 64 ± 16 fmol/μg protein | total binding ([5]; Superior Temporal, Control (n = 8)): 66 ± 17 fmol/μg protein | total binding ([5]; Superior/Middle Frontal, Control (n = 8)): 54 ± 10 fmol/μg protein | binding in Down's syndrome brain vs control [6]: above the control range | Kd [7]: 250 to 400 nM | radioactivity in brain over time [8]: stayed nearly constant | Bmax (Table 1) ([9]; AD, n = 5): 0.784 ± .061 pmol/μg prot | Bmax in AD brain higher than control ([9]; not significant (p=0.09)): 36% | KD in AD brain lower than control ([9]; not significant (p=0.29)): 16% | Bmax ([9]; typical AD brain sample, 48 NP/×200, FIG. 4B): 790 fmol/μg protein | radioactivity that is unchanged Chrysamine G ([10]; 60 min, in words): essentially all | remaining at 1 h ([10]; mouse, iv, 0.05 uCi/g): > 95% | correlation of binding with NPs (r) ([11]; AD brains alone, p=0.007): 0.59 | correlation of binding with NFTs (r) ([11]; AD brains alone, p=0.026): 0.50 | correlation of binding with NP counts (r) ([11]; brains with cerebrovascular amyloid deposits, p=0.15): 0.49 | correlation of binding with NP counts (r) ([11]; brains without amyloid angiopathy, p=0.01): 0.79 | correlation of binding with NFTs (r) ([11]; controls included, p=0.001): 0.60 | correlation of binding with NPs (r) ([11]; controls included, p=0.001): 0.69 | Bmax (Table 1) ([12]; Control, n = 6): 0.576 ± .092 pmol/μg prot | Bmax ([12]; typical control brain sample, FIG. 4B): 614 fmol/μg protein
SMILES: O=C(O)c1cc(N=Nc2ccc(-c3ccc(N=Nc4ccc(O)c(C(=O)O)c4)cc3)cc2)ccc1O [Chrysamine G, 4,4'-bis(3-carboxy-4-hydroxyphenylazo)-biphenyl]
concentration range showing protective effects ([13]; Aβ(25-35)): 0.1 to 1.0 µM | protective effects in cells incubated with 1 μM Aβ(25-35) [13]: protective effects at 0.1 and 1 μM | protective effect against Aβ(25-35)-induced decrease in MTT reduction [13]: dose-dependent, protective effect; also recorded: protective effect which is dependent on both the concentration of Aβ(25-35) (FIG. 12) as well as the concentration of Chrysamine G; also recorded: prevents Aβ-induced cytotoxicity | effect on MTT reduction in the absence of Aβ(25-35) ([13]; vs control, FIG. 13): no significant difference
